Numbers after ± are expanded uncertainties.
Experiment: xn = mol fraction of the nth substance listed
Conditions: 101 kPa, Liquid

OCCOCCO [diethylene glycol] + CN(C)C=O
Conditions | kinematic viscosity, 298.15 K [m2/s] | kinematic viscosity, 303.15 K [m2/s] | kinematic viscosity, 308.15 K [m2/s] | kinematic viscosity, 313.15 K [m2/s] | kinematic viscosity, 318.15 K [m2/s] | mass density, 298.15 K [kg/m3] | mass density, 303.15 K [kg/m3] | mass density, 308.15 K [kg/m3] | mass density, 313.15 K [kg/m3] | mass density, 318.15 K [kg/m3]
x2 = 0 | 2.76e-05 ± 1.2e-06 | 2.13e-05 ± 9e-07 | 1.68e-05 ± 7e-07 | 1.45e-05 ± 6e-07 | 1.12e-05 ± 5e-07 | 1113 ± 2.9 | 1109.2 ± 3 | 1106.1 ± 3.1 | 1103 ± 3.2 | 1099.3 ± 3.3
x2 = 0.0714 | 1.96e-05 ± 8e-07 | 1.53e-05 ± 7e-07 | 1.19e-05 ± 5e-07 | 1.07e-05 ± 5e-07 | 8.43e-06 ± 4e-07 | 1104.1 ± 2.9 | 1100 ± 3 | 1096.7 ± 3.1 | 1093.4 ± 3.2 | 1089.5 ± 3.3
x2 = 0.1393 | 1.57e-05 ± 7e-07 | 1.24e-05 ± 6e-07 | 9.67e-06 ± 4.5e-07 | 8.49e-06 ± 4.1e-07 | 6.68e-06 ± 3.4e-07 | 1094.9 ± 2.8 | 1090.8 ± 2.9 | 1087.3 ± 3 | 1083.9 ± 3.1 | 1079.8 ± 3.2
x2 = 0.2041 | 1.26e-05 ± 6e-07 | 1.01e-05 ± 5e-07 | 8.08e-06 ± 3.9e-07 | 7.39e-06 ± 3.6e-07 | 5.77e-06 ± 3e-07 | 1085.9 ± 2.8 | 1081.9 ± 2.9 | 1078.2 ± 3 | 1074.6 ± 3.1 | 1070.3 ± 3.2
x2 = 0.2683 | 1.02e-05 ± 5e-07 | 8.29e-06 ± 4e-07 | 6.7e-06 ± 3.4e-07 | 6.18e-06 ± 3.2e-07 | 4.88e-06 ± 2.7e-07 | 1076.7 ± 2.8 | 1072.6 ± 2.9 | 1068.7 ± 3 | 1065.1 ± 3.1 | 1060.7 ± 3.2
x2 = 0.3266 | 8.33e-06 ± 4e-07 | 6.84e-06 ± 3.4e-07 | 5.59e-06 ± 2.9e-07 | 5.2e-06 ± 2.8e-07 | 4.16e-06 ± 2.3e-07 | 1068.1 ± 2.8 | 1063.9 ± 2.9 | 1059.9 ± 3 | 1056.2 ± 3.1 | 1051.7 ± 3.2
x2 = 0.3834 | 6.84e-06 ± 3.4e-07 | 5.68e-06 ± 3e-07 | 4.69e-06 ± 2.6e-07 | 4.4e-06 ± 2.4e-07 | 3.54e-06 ± 2e-07 | 1059.4 ± 2.7 | 1055.2 ± 2.8 | 1051 ± 2.9 | 1047.3 ± 3 | 1042.7 ± 3.1
x2 = 0.4384 | 5.66e-06 ± 3e-07 | 4.76e-06 ± 2.6e-07 | 3.98e-06 ± 2.2e-07 | 3.74e-06 ± 2.1e-07 | 3.06e-06 ± 1.7e-07 | 1050.9 ± 2.7 | 1046.5 ± 2.8 | 1042.2 ± 2.9 | 1038.5 ± 3 | 1033.9 ± 3.1
x2 = 0.4917 | 4.71e-06 ± 2.6e-07 | 4e-06 ± 2.2e-07 | 3.38e-06 ± 1.9e-07 | 3.2e-06 ± 1.8e-07 | 2.64e-06 ± 1.5e-07 | 1042.3 ± 2.7 | 1037.9 ± 2.8 | 1033.5 ± 2.9 | 1029.7 ± 3 | 1024.9 ± 3.1
x2 = 0.5429 | 3.94e-06 ± 2.2e-07 | 3.38e-06 ± 1.9e-07 | 2.88e-06 ± 1.6e-07 | 2.75e-06 ± 1.5e-07 | 2.29e-06 ± 1.3e-07 | 1033.8 ± 2.7 | 1029.4 ± 2.8 | 1024.8 ± 2.9 | 1021 ± 3 | 1016.2 ± 3.1
x2 = 0.5865 | 3.4e-06 ± 1.9e-07 | 2.93e-06 ± 1.6e-07 | 2.53e-06 ± 1.4e-07 | 2.41e-06 ± 1.4e-07 | 2.03e-06 ± 1.2e-07 | 1026.4 ± 2.6 | 1022 ± 2.7 | 1017.3 ± 2.8 | 1013.4 ± 2.9 | 1008.6 ± 3
x2 = 0.6394 | 2.83e-06 ± 1.6e-07 | 2.47e-06 ± 1.4e-07 | 2.16e-06 ± 1.2e-07 | 2.07e-06 ± 1.2e-07 | 1.76e-06 ± 1e-07 | 1017.2 ± 2.6 | 1012.7 ± 2.7 | 1007.9 ± 2.8 | 1004 ± 2.9 | 999.1 ± 3
x2 = 0.6819 | 2.44e-06 ± 1.4e-07 | 2.15e-06 ± 1.2e-07 | 1.89e-06 ± 1.1e-07 | 1.82e-06 ± 1.1e-07 | 1.56e-06 ± 9e-08 | 1009.5 ± 2.6 | 1005 ± 2.7 | 1000.1 ± 2.8 | 996.2 ± 2.9 | 991.2 ± 3
x2 = 0.7294 | 2.08e-06 ± 1.2e-07 | 1.85e-06 ± 1.1e-07 | 1.64e-06 ± 1e-07 | 1.59e-06 ± 9e-08 | 1.37e-06 ± 8e-08 | 1000.7 ± 2.6 | 996.1 ± 2.7 | 991.1 ± 2.8 | 987.1 ± 2.9 | 982.1 ± 3
x2 = 0.7721 | 1.8e-06 ± 1e-07 | 1.62e-06 ± 1e-07 | 1.44e-06 ± 9e-08 | 1.39e-06 ± 8e-08 | 1.22e-06 ± 7e-08 | 992.5 ± 2.5 | 987.9 ± 2.6 | 982.8 ± 2.7 | 978.6 ± 2.8 | 973.6 ± 2.9
x2 = 0.813 | 1.57e-06 ± 9e-08 | 1.42e-06 ± 8e-08 | 1.28e-06 ± 8e-08 | 1.23e-06 ± 7e-08 | 1.09e-06 ± 7e-08 | 984.5 ± 2.5 | 979.7 ± 2.6 | 974.5 ± 2.7 | 970.3 ± 2.8 | 965.2 ± 2.9
x2 = 0.8531 | 1.38e-06 ± 8e-08 | 1.25e-06 ± 8e-08 | 1.14e-06 ± 7e-08 | 1.1e-06 ± 7e-08 | 9.94e-07 ± 6.1e-08 | 976.4 ± 2.5 | 971.5 ± 2.6 | 966.3 ± 2.7 | 962.1 ± 2.8 | 956.9 ± 2.9
x2 = 0.891 | 1.22e-06 ± 7e-08 | 1.12e-06 ± 7e-08 | 1.03e-06 ± 6e-08 | 9.92e-07 ± 6.1e-08 | 8.99e-07 ± 5.6e-08 | 968.5 ± 2.5 | 963.6 ± 2.6 | 958.3 ± 2.7 | 954.1 ± 2.8 | 948.9 ± 2.9
x2 = 0.9288 | 1.08e-06 ± 7e-08 | 1e-06 ± 6e-08 | 9.23e-07 ± 5.8e-08 | 8.88e-07 ± 5.6e-08 | 8.16e-07 ± 5.2e-08 | 960.2 ± 2.4 | 955.4 ± 2.5 | 950 ± 2.6 | 945.8 ± 2.7 | 940.7 ± 2.8
x2 = 0.9648 | 9.67e-07 ± 6e-08 | 9.04e-07 ± 5.7e-08 | 8.37e-07 ± 5.3e-08 | 8.06e-07 ± 5.1e-08 | 7.44e-07 ± 4.8e-08 | 952.2 ± 2.4 | 947.6 ± 2.5 | 942.3 ± 2.6 | 937.9 ± 2.7 | 932.6 ± 2.8
